Reference: ChEMBL document CHEMBL1201862, “PubChem BioAssay data set” (2004)
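1) Cells in 96-well plates. 2) Compound, 48 h, 5 concentrations. 3) Linear interpolation between surrounding doses. 4) Unreached endpoint = highest concentration. At the GI50, growth is halved.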 Calls of active or inactive are those of the source. No stated cut-off is given here; in the data, active = GI50 up to about 1.1 µM and inactive = higher.

Tests used:
Experiment in all cases: NCI anticancer screen, dose series, 48 h
CCRF-CEM = system: CCRF-CEM
SK-MEL-28 = system: SK-MEL-28
COLO 205 = system: COLO 205
HOP-92 = system: HOP-92
LOX IMVI = system: LOX IMVI
NCI-H522 = system: NCI-H522
TK-10 = system: TK-10
RXF 393 = system: RXF 393
U-251 = system: U-251
RPMI-8226 = system: RPMI-8226
SF-539 = system: SF-539
MOLT-4 = system: MOLT-4
K562 = system: K562
MDA-N = system: MDA-N
NCI-H460 = system: NCI-H460
Hs-578T = system: Hs-578T
UO-31 = system: UO-31
UACC-62 = system: UACC-62
BT-549 = system: BT-549
SK-OV-3 = system: SK-OV-3

Structure (SMILES)	GI50 (CCRF-CEM)	GI50 (SK-MEL-28)	GI50 (COLO 205)	GI50 (HOP-92)	GI50 (LOX IMVI)	GI50 (NCI-H522)	GI50 (TK-10)	GI50 (RXF 393)	GI50 (U-251)	GI50 (RPMI-8226)	GI50 (SF-539)	GI50 (MOLT-4)	GI50 (K562)	GI50 (MDA-N)	GI50 (NCI-H460)	GI50 (Hs-578T)	GI50 (UO-31)	GI50 (UACC-62)	GI50 (BT-549)	GI50 (SK-OV-3)
N[C@@H]1CCN(c2c(F)cc3c(=O)c(C(=O)O)cn4c3c2Oc2cc3c(ccc5ccccc53)cc2-4)C1	0.0482 µM (active)	> 21.1 µM (inactive)	4.45 µM (inactive)	2.72 µM (inactive)	2.34 µM (inactive)	3.85 µM (inactive)	1.45 µM (inactive)	1.64 µM (inactive)	0.906 µM (active)	4.3 µM (inactive)	3.37 µM (inactive)	0.515 µM (active)	2.54 µM (inactive)	3.01 µM (inactive)	0.735 µM (active)	15.9 µM (inactive)	5.2 µM (inactive)	7.6 µM (inactive)	4.03 µM (inactive)	
C#CCCCCC#Cc1ccccc1C(=O)C=[N+]=[N-]		> 100 µM (inactive)	> 100 µM (inactive)	> 100 µM (inactive)		> 100 µM (inactive)	> 100 µM (inactive)	> 100 µM (inactive)	> 100 µM (inactive)	16.5 µM (inactive)	> 100 µM (inactive)	> 100 µM (inactive)	39.8 µM (inactive)	> 100 µM (inactive)	> 100 µM (inactive)	> 100 µM (inactive)	> 100 µM (inactive)	> 100 µM (inactive)	> 100 µM (inactive)	> 100 µM (inactive)
COC(=O)C(/C(=N/NC(=O)c1ccncc1)C(=O)Nc1ccccc1OC)c1nc2ccc(Cl)cc2nc1O (centres undefined)	> 10 µM (inactive)	> 100 µM (inactive)		> 100 µM (inactive)	> 100 µM (inactive)	> 100 µM (inactive)	> 100 µM (inactive)	> 100 µM (inactive)	> 100 µM (inactive)	75.5 µM (inactive)	> 100 µM (inactive)	> 100 µM (inactive)	75.9 µM (inactive)	47.2 µM (inactive)	> 100 µM (inactive)	> 100 µM (inactive)	47 µM (inactive)	> 100 µM (inactive)	> 100 µM (inactive)	> 100 µM (inactive)
CC(=O)c1cc2c(Br)cccc2oc1=O	> 100 µM (inactive)	> 100 µM (inactive)	> 100 µM (inactive)	> 100 µM (inactive)	> 100 µM (inactive)	> 100 µM (inactive)	> 100 µM (inactive)	> 100 µM (inactive)	63.4 µM (inactive)	> 100 µM (inactive)	> 100 µM (inactive)	> 100 µM (inactive)	99.1 µM (inactive)	52 µM (inactive)	> 100 µM (inactive)	> 100 µM (inactive)		> 100 µM (inactive)	79.1 µM (inactive)	
